Results on one compound are retold here after US10632106B2, “Methods of cancer treatment with 2-(1′H-Indole-3′-carbonyl)-thiazole-4-carboxylic acid methyl ester” (Ariagen, Inc., priority 2009, dated 2020).

Series [1] has as its system human prostate cancer cell line LNCaP xenografts. As to the kind of experiment: LNCaP xenograft growth inhibition in nude mice. The following applies: for TGI (Tumor Growth Inhibition): TGI=ΔT/ΔC×100%. The class given is in vivo. The method, then:
(§1) All the procedures related to animal handling, care, and the treatment in the study were performed following guidelines approved by an Institutional Animal Care and Use Committee (IACUC) of Crown Bioscience, Inc. (Santa Clara, Calif., USA, a contract research organization we hired) based on the guidance of the Association for Assessment and Accreditation of Laboratory Animal Care (AAALAC). Animals were checked for any effects of tumor growth and drug treatment on normal behavior such as mobility, food and water consumption, body weight gain/loss (gross body weights were measured twice weekly), eye/hair matting, and any other abnormal effect. Death and observed clinical signs were recorded on the basis of the number of animals within each group. Individual animals with a tumor volume exceeding 3,000 mm^3 or animals of a group with a mean tumor volume exceeding 2,000 mm^3 were euthanized. In addition, animals showing signs of severe distress and/or pain, dropping body weight more than 20% from that at the start of treatment, or losing the capability of accessing adequate food or water were humanely sacrificed.
The human prostate cancer cell line LNCaP (ATCC, American Type Culture Collection, Manassas, Va., USA) were maintained in vitro as monolayer culture in RPMI-1640 medium supplemented with 10% fetal bovine serum (FBS), 100 U/ml penicillin, 100 μg/ml streptomycin, and 2 mM L-glutamine at 37° C. in an atmosphere of 5% CO2 in air. The tumor cells were routinely subcultured twice a week. The cells growing in an exponential phase were harvested and counted for tumor inoculation.
(§2) Each mouse was inoculated subcutaneously at the right flank with the LNCaP cells (1×10^7) in 0.1 ml of PBS for tumor development. When a mean tumor volume reached around 150 mm^3, the tumor-bearing mice were divided into homogeneous blocks based on their tumor volumes followed by a randomization of mice in each block into treatment groups (thus minimizing variations in tumor response to treatments due to the differential in initial mean tumor volumes). Each treatment group was consisted of 8 tumor-bearing mice. Vehicle (DMSO) or ITE in the vehicle at specified doses were administered to the mice by either i.p. (intraperitoneal) or p.o. (oral) injection once or twice daily for 28 continuous days as indicated.
(§3) Tumor volume was measured twice weekly in two dimensions using a caliper and the volume was calculated with a formula of: V=0.5 a×b^2, where a and b are the long and short diameter (in mm) of a tumor, respectively. The tumor volume was then used for calculations of both TGI (Tumor Growth Inhibition) and TGD (Tumor Growth Delay). The TGI was determined by: TGI=ΔT/ΔC×100%, where ΔT was a difference between the mean tumor volume at a specified day of observation and that at the day treatment starts (day 1) for a drug treated group whereas ΔC was the same difference measured for the control group. The TGD was calculated as: TGD=T−C, where T was the time (in days) required for tumors in a drug treated group to reach a predetermined mean tumor volume and C the time (in days) in the control group to reach the same volume. A tumor weight was derived by equating 1,000 mm^3 in volume to 1,000 mg in weight. A net body weight was then derived by subtracting a tumor weight from a corresponding gross body weight with the tumor.
(§4) Summary statistics, including mean and the standard error of the mean (SEM), are provided for the tumor volume of each group at each time point. Statistical analysis of difference in tumor volume among groups was conducted on a data set either at the best therapeutic time point or at the final dosing day as indicated. The tumor volume data were log-transformed and evaluated using a one-way ANOVA followed by Tukey's test when significance was observed. All data were analyzed using SPSS 16.0 and p<0.05 was considered to be statistically significant.

Series [2] has as its system human ovarian cancer cell line OVCAR-3 xenografts. As to the kind of experiment: OVCAR-3 xenograft growth inhibition in nude mice. The class given is in vivo. The following applies: 80 mg/kg i.p. once daily. The method, then: as §1, §2, §3, §4
The culture and inoculation of human prostate cancer cell line LNCaP were as described in Example 1. The manipulation for human liver cancer cell line HepG2 (ATCC) was similar as that for LNCaP except that DMEM (instead of RPMI-1640) medium was used, the L-glutamine was not used, and 2×10^6 cells were used for inoculation into female nude mice. The handling of human ovarian cancer cell line OVCAR-3 (ATCC) was the same as that of LNCaP except that the DMEM medium was used and 5×10^6 cells were used for inoculation into female nude mice. […]

As to `COC(=O)c1csc(C(=O)c2c[nH]c3ccccc23)n1` [ITE, 2-(1′H-indole-3′-carbonyl)-thiazole-4-carboxylic acid methyl ester], the “TGD (Tumor Growth Delay)” value in series [1] (20 mg/kg b.w. i.p. once daily, at a tumor volume of 1,000 mm^3) is listed as 8 days; in series [1] (ITE 1 mg/kg b.w. i.p. every 12 hr, at a tumor size of 600 mm^3), 3 days; in series [1] (ITE 10 mg/kg b.w. i.p. every 12 hr, at a tumor size of 600 mm^3), 10 days; in series [1] (ITE 20 mg/kg b.w. i.p. every 12 hr, at a tumor size of 600 mm^3) it was 12 days; in series [1] (ITE 40 mg/kg b.w. i.p. every 12 hr, at a tumor size of 600 mm^3), 16 days; in series [2] (at a tumor volume of 800 mm^3), 10 days. Besides, the “TGI (Tumor Growth Inhibition)” value in series [1] (20 mg/kg b.w. i.p. once daily, day 28) came to 64%; in series [1] (ITE 0.1 mg/kg b.w. i.p. every 12 hr for 28 days, DMSO, day 28), 74%; in series [1] (ITE 1 mg/kg b.w. i.p. every 12 hr for 28 days, day 28), 52%; in series [1] (ITE 10 mg/kg b.w. i.p. every 12 hr for 28 days, day 28) it was 31%; in series [1] (ITE 20 mg/kg b.w. i.p. every 12 hr for 28 days, day 28) it was 26%; in series [1] (ITE 40 mg/kg b.w. i.p. every 12 hr for 28 days, day 28), 22%. Moreover, the “TGI (Tumor Growth Inhibition)” value was found to be 46% in series [1] (ITE 80 mg/kg p.o. daily, day 24); 12% in series [1] (ITE 80 mg/kg twice daily i.p., day 28); 16% in series [1] (ITE 80 mg/kg twice daily i.p., the last day); 47% in series [2] (day 33, TGI=ΔT/ΔC×100%). Moreover, in series [1] (0.1-40 mg/kg b.w. i.p. every 12 hr for 28 days), the “toxic response judged from body weight changes of tumor-bearing mice” value is listed as “did not seem to provoke significant toxic response”. The “net body weight loss” value in series [2] is “no obvious net body weight loss”.
